Test results reported in patent US20190150438A1, “CONFIGURATIONAL STEREOISOMER OF DIFETHIALONE, COMPOSITION AND RODENTICIDE BAIT COMPRISING SAME, AND METHOD FOR CONTROLLING TARGET RODENT PESTS” (priority 2015, published 2019).

Experiment: Hepatic content in dead rats by high-pressure liquid chromatography on a chiral column
Format: in vivo, rat
Procedure: About 0.525 g (±0.025 g) of rat liver is weighed out accurately and placed in a 50 mL polypropylene tube. 10 mL of acetone are added and the suspension is homogenized using an Ultra-Turrax® homogenizer/disperser for a time of about 30 seconds. The homogenizer/disperser shaft is rinsed with hot water and then twice with 20 mL of acetone in a polypropylene tube. The homogenate is centrifuged for 5 minutes at a centrifugation speed of 3000 rpm (revolutions per minute). The supernatant is collected and transferred into a test tube. The sample is subjected to evaporation under a stream of nitrogen (N2) at a temperature of 40° C. so as to form a dry extract.
1 mL of acetonitrile is added to the tube containing the dry extract so as to dissolve it. […]
The solution containing difethialone is analysed by high-pressure liquid chromatography on a LUX® Cellulose-3 chiral column (Phenomenex, Le Pecq, France) (150×2 mm, particle size of 3 μm) as described in point A2) above.
The measured values, expressed as micrograms of dextrorotatory enantiomer of said hetero-stereoisomer (“DFN-Hetero-dextro”) per gram of liver, are given in table 2 below.
The hepatic content of the dextrorotatory enantiomer of said hetero-stereoisomer of difethialone in each of the rats which die between D5 and D8 is measured by high-pressure liquid chromatography analysis on a chiral column. […]

Structure (SMILES): O=c1sc2ccccc2c(O)c1C1CC(c2ccc(-c3ccc(Br)cc3)cc2)Cc2ccccc21 (centres unmarked) [Total difethialone, 3-(4′-bromobiphenyl-4-yl)-1-(4-hydroxythiocoumarin-3-yl)-1,2,3,4-tetrahydronaphthalene]
- Hepatic content, mean (liver of rats which die between D5 and D8 after 10.6 ppm bait): 15.113 µg/g
- Hepatic content, mean (liver of rats which die between D9 and D13 after 3.7 ppm bait): 5.372 µg/g
